From patent publication US8722678B2 (priority 2010, dated 2014)
Where two headings read alike, the source gives them in different places.

Experiments:
[1] = system: Phytophthora infestans; assay: whole plant or invertebrate; format: in vivo; details: for Test B rating (100 = 100% disease control, 0 = no disease control relative to the controls): in vivo
[2] = system: Plasmopara viticola; details: in vivo
[3] = system: Phytophthora infestans; format: in vivo
[4] = tomato seedlings, sprayed to run-off 17 h after inoculation, application rate not given for unstarred values (40 ppm suspension mentioned)

## 1-[4-[4-[(hydroxyimino)phenylmethyl]-2-thiazolyl]-1-piperidinyl-2-[5-methyl-3-(trifluoromethyl)-1H-pyrazol-1-yl]ethanone [Compound 15]
[1]
  Test B rating (100 = 100% disease control, 0 = no disease control relative to the controls): 100%
[2]
  Test A rating (100 = 100% disease control, 0 = no disease control relative to the controls): 55%

## 1-[4-[4-[(hydroxyimino)phenylmethyl]-2-thiazolyl]-1-piperidinyl-2-[5-methyl-3-(trifluoromethyl)-1H-pyrazol-1-yl]ethanone [Compound 16]
[1]
  Test B rating (100 = 100% disease control, 0 = no disease control relative to the controls): 89%
[3]; in vivo
  Test C rating (100 = 100% disease control, 0 = no disease control relative to the controls): 0%
[2]
  Test A rating (100 = 100% disease control, 0 = no disease control relative to the controls): 0%

## Cc1cc(C(F)(F)F)nn1CC(=O)N1CCC(c2nc(C=NO)cs2)CC1 [Compound 8, 4-[4-[(hydroxyimino)methyl]-2-thiazolyl]-1-[[5-methyl-3-(trifluoromethyl)-1H-pyrazol-1-yl]acetyl]piperidine]
[3]; [4]
  Test C rating (100 = 100% disease control, 0 = no disease control relative to the controls): 97%
[2]
  Test A rating (100 = 100% disease control, 0 = no disease control relative to the controls): 99%

## CC(=NO)c1csc(C2CCN(C(=O)Cn3nc(C(F)(F)F)cc3C)CC2)n1 [Compound 10, 1-[4-[4-[1-(hydroxyimino)ethyl)-2-thiazolyl]-1-piperidinyl]-2-[5-methyl-3-(trifluoromethyl)-1H-pyrazol-1-yl]ethanone]
[2]
  Test A rating (100 = 100% disease control, 0 = no disease control relative to the controls): 71%

## Cc1cc(C(F)(F)F)nn1CC(=O)N1CCC(c2nc(C(C=Cc3c(F)cccc3F)=NO)cs2)CC1 [Compound 11, 3-(2,6-difluorophenyl)-1-[2-[1-[2-[5-methyl-3-(trifluoromethyl)-1H-pyrazol-1-yl]acetyl]-4-piperidinyl]-4-thiazolyl]-2-propen-1-one 1-oxime]
[3]; [4]
  Test C rating (100 = 100% disease control, 0 = no disease control relative to the controls): 98%
[2]
  Test A rating (100 = 100% disease control, 0 = no disease control relative to the controls): 100%

## Cc1cc(C(F)(F)F)nn1CC(=O)N1CCC(c2nc(C(CC(O[Si](C)(C)C(C)(C)C)c3c(F)cccc3F)=NO)cs2)CC1 (stereo not drawn) [Compound 12, 3-(2,6-difluorophenyl)-3-[[(1,1-dimethylethyl)dimethylsilyl]oxy]-1-[2-[1-[2-[5-methyl-3-(trifluoromethyl)-1H-pyrazol-1-yl]acetyl]-4-piperidinyl]-4-thiazolyl]-1-propanone 1-oxime]
[1]; Phytophthora infestans, in Solanum lycopersicum, read-out: Test B rating (100 = 100% disease control, 0 = no disease control relative to the controls)
  pest or weed control at 200 ppm: 40%
[2]
  Test A rating (100 = 100% disease control, 0 = no disease control relative to the controls): 0%

## Cc1cc(C(F)(F)F)nn1CC(=O)N1CCC(c2nc(C(CC(O)c3c(F)cccc3F)=NO)cs2)CC1 (stereo not drawn) [Compound 13, 3-(2,6-difluorophenyl)-3-hydroxy-1-[2-[1-[2-[5-methyl-3-(trifluoromethyl)-1H-pyrazol-1-yl]acetyl]-4-piperidinyl]-4-thiazolyl]-1-propanone 1-oxime]
[3]; [4]
  Test C rating (100 = 100% disease control, 0 = no disease control relative to the controls): 97%
[2]
  Test A rating (100 = 100% disease control, 0 = no disease control relative to the controls): 93%

## CCOC(=O)/C(=N\O)c1csc(C2CCN(C(=O)Cn3nc(C(F)(F)F)cc3C)CC2)n1 [Compound 14]
[3]; [4]
  Test C rating (100 = 100% disease control, 0 = no disease control relative to the controls): 9%
[2]
  Test A rating (100 = 100% disease control, 0 = no disease control relative to the controls): 0%

## CON=C(C=Cc1c(F)cccc1F)c1csc(C2CCN(C(=O)Cn3nc(C(F)(F)F)cc3C)CC2)n1 [Compound 19, 3-(2,6-difluorophenyl)-1-[2-[1-[2-[5-methyl-3-(trifluoromethyl)-1H-pyrazol-1-yl]acetyl]-4-piperidinyl]-4-thiazolyl]-2-propen-1-one 1-(O-methyloxime)]
[2]
  Test A rating (100 = 100% disease control, 0 = no disease control relative to the controls): 83%

## Cc1cc(C(F)(F)F)nn1CC(=O)N1CCC(c2nc(C(CCc3c(F)cccc3F)=NO)cs2)CC1 [Compound 21, 3-(2,6-difluorophenyl)-1-[2-[1-[2-[5-methyl-3-(trifluoromethyl)-1H-pyrazol-1-yl]acetyl]-4-piperidinyl]-4-thiazolyl]-1-propanone 1-oxime]
[2]
  Test A rating (100 = 100% disease control, 0 = no disease control relative to the controls): 57%

## Cc1cc(C(F)(F)F)nn1CC(=O)N1CCC(c2nc(C=NOC(C)c3ccccc3)cs2)CC1 (stereo not drawn) [Compound 22, 2-[1-[2-[5-methyl-3-(trifluoromethyl)-1H-pyrazol-1-yl]acetyl]-4-piperidinyl]-4-thiazolecarboxaldehyde 4-[O-(1-phenylethyl)oxime]]
[2]
  Test A rating (100 = 100% disease control, 0 = no disease control relative to the controls): 97%

## CC(=O)ON=C(C=Cc1c(F)cccc1F)c1csc(C2CCN(C(=O)Cn3nc(C(F)(F)F)cc3C)CC2)n1 [Compound 23, 3-(2,6-difluorophenyl)-1-[2-[1-[2-[5-methyl-3-(trifluoromethyl)-1H-pyrazol-1-yl]acetyl]-4-piperidinyl]-4-thiazolyl]-2-propen-1-one 1-(O-acetyloxime)]
[3]; [4]
  Test C rating (100 = 100% disease control, 0 = no disease control relative to the controls): 99%
[2]
  Test A rating (100 = 100% disease control, 0 = no disease control relative to the controls): 99%
